Holding throughout (type): in vivo
The subject of one experiment is Abutilon theoprasti. Kind of experiment: Greenhouse postemergence herbicidal activity on ABUTH, 20 DAT. The settings on record: Abutilon, post-emergence, 62.5 gai/ha, read-out: % activity, solo application dicuran. The method, then:
(§1) For the post emergence treatment, the plants were first grown to the 2 leaf station (GS 12) and applied at GS 12-19 depending on the species. The herbicidal compositions were suspended or emulsified in water as distribution medium and sprayed using finely distributing nozzles.
(§2) The plants have been cultivated due to their individual requirements at 10 to 25° C. and. 20 to 35° C. The plants were irrigated due to their necessity.
(§3) The respective stated components A), were formulated as a 5% by weight strength emulsion concentrate containing wettol EM 31 20% and Cyclohexanone 80%. The respective stated components B), were formulated as either emulsifiable concentrates (EC), soluble liquids (SL), suspension concentrates (SC) or soluble granules (SG) as indicated in the table below. Component A, component B and the solvent system are introduced into the spray liquor used for applying the active compound. In the examples, the solvent used was water containing 1% Dash (Agnique ME 181 37.5%, Lutensit A-EP 22.5%, and Oleic Acid 5%) and 2% ammonium suflate.
(§4) In the following experiments, the herbicidal activity for the individual herbicide compounds (solo and mixture applications), the herbicidal succession was assessed 20 days after treatment (DAT). The evaluation for the damage on undesired weeds caused by the chemical compositions was carried out using a scale from 0 to 100%, compared to the untreated control plants. Here, 0 means no damage and 100 means complete destruction of the plants. The plants used in the greenhouse experiments belonged to the following species:
(§5) The value E, which corresponds to the effect (in %) that is to be expected if the activity of the individual compounds is additive, was calculated using the method of S. R. Colby (1967) “Calculating synergistic and antagonistic responses of herbicide combinations”, Weeds 15, p. 22 ff. Colby calculation for 2 way mixtures:
(§6) where: • X=effect in percent using herbicide A at an application rate a; • Y=effect in percent using herbicide B at an application rate b; • E=expected effect (in %) of A+B at application rates a+b
(§7) If the value observed in this manner is higher than the value E calculated according to Colby, a synergistic effect is present.

The test system of the next experiment is Setaria viridis. Kind of experiment: Greenhouse postemergence herbicidal activity on SETVI, 20 DAT. To be noted: post-emergence, 62.5 gai/ha, read-out: % activity, solo application dicuran. The method, then:
as §1, §2
The respective stated components A), were formulated as a 5% by weight strength emulsion concentrate containing wettol EM 31 20% and Cyclohexanone 80%. The respective stated components B), were formulated as either emulsifiable concentrates (EC), soluble liquids (SL), suspension concentrates (SC) or soluble granules (SG) as indicated in the table below. […]
In the following experiments, the herbicidal activity for the individual herbicide compounds (solo and mixture applications), the herbicidal succession was assessed 20 days after treatment (DAT). […]
The value E, which corresponds to the effect (in %) that is to be expected if the activity of the individual compounds is additive, was calculated using the method of S. R. Colby (1967) “Calculating synergistic and antagonistic responses of herbicide combinations”, Weeds 15, p. […]
as §7

The test system of the next experiment is Polygonum convolvulus. The experiment in a line: Greenhouse postemergence herbicidal activity on POLCO, 20 DAT. The settings on record: Fallopia convolvulus, post-emergence. The method, then: as §1, §2, §3, §4, §5, §6, §7
A further experiment relates to Amaranthus retroflexus. The experiment in a line: Greenhouse postemergence herbicidal activity on AMARE, 20 DAT. To be noted: Amaranthus retroflexus, post-emergence. The method, then:
as §1, §2, §3, §4, §5, §6, §7

For another experiment, the system named is Chenopodium album. Kind of experiment: Greenhouse postemergence herbicidal activity on CHEAL, 20 DAT. The settings on record: Chenopodium album, post-emergence, 62.5 gai/ha, read-out: % activity, solo application dicuran. The method, then: as §1, §2, §3, §4, §5, §6, §7
Another experiment concerns Conyza canadiensis. The experiment in a line: Greenhouse postemergence herbicidal activity on ERICA, 20 DAT. The settings on record: Conyza, post-emergence. As for the experimental part: as §1, §2, §3, §4, §5, §6, §7
Another experiment relates to Ipomoea hederacea. Kind of experiment: Greenhouse postemergence herbicidal activity on IPOHE, 20 DAT. The settings on record: Ipomoea hederacea, post-emergence, 62.5 gai/ha, read-out: % activity, solo application dicuran. As for the experimental part: as §1, §2, §3, §4, §5, §6, §7
In another experiment the test system is Matricaria chamomilla. Kind of experiment: Greenhouse postemergence herbicidal activity on MATCH, 20 DAT. The settings on record: Matricaria chamomilla, post-emergence, 62.5 gai/ha, read-out: % activity, solo application dicuran. The method, then:
as §1, §2, §3, §4, §5, §6, §7

The next experiment deals with Stellaria media. Kind of experiment: Greenhouse postemergence herbicidal activity on STEME, 20 DAT. The settings on record: Stellaria media, post-emergence. The method, then:
as §1, §2, §3, §4, §5, §6, §7

The test system of a further experiment is Galium aparine. The experiment in a line: Greenhouse postemergence herbicidal activity on GALAP, 20 DAT. The settings on record: Galium aparine, post-emergence, 62.5 gai/ha, read-out: % activity, solo application dicuran. As for the experimental part: as §1, §2, §3, §4, §5, §6, §7
The subject of the next experiment is ALOMY. The experiment in a line: Greenhouse postemergence herbicidal activity on ALOMY, 20 DAT. To be noted: Alopecurus myosuroides, post-emergence, 62.5 gai/ha, read-out: % activity, solo application dicuran.
Another experiment relates to APESV. Kind of experiment: Greenhouse postemergence herbicidal activity on APESV, 20 DAT. To be noted: post-emergence, 62.5 gai/ha, read-out: % activity, solo application dicuran.
A further experiment has as its system AVEFA. The experiment in a line: Greenhouse postemergence herbicidal activity on AVEFA, 20 DAT. The settings on record: Avena fatua, post-emergence, 62.5 gai/ha, read-out: % activity, solo application dicuran.
A further experiment deals with BROST. Kind of experiment: Greenhouse postemergence herbicidal activity on BROST, 20 DAT. To be noted: post-emergence, 62.5 gai/ha, read-out: % activity, solo application dicuran.
The test system of another experiment is CONAR. The experiment in a line: Greenhouse postemergence herbicidal activity on CONAR, 20 DAT. To be noted: post-emergence, 62.5 gai/ha, read-out: % activity, solo application dicuran.
The test system of a further experiment is DIGSA. Kind of experiment: Greenhouse postemergence herbicidal activity on DIGSA, 20 DAT. The settings on record: Digitaria sanguinalis, post-emergence, 62.5 gai/ha, read-out: % activity, solo application dicuran.
For the next experiment, the system named is Ambrosia elatior. Kind of experiment: Greenhouse postemergence herbicidal activity on AMBEL, 20 DAT. The settings on record: Ambrosia artemisiifolia, post-emergence, 480 h, read-out: % activity, solo metsulfuron. As for the experimental part: as §1, §2, §3, §4, §5, §6, §7
For another experiment, the system named is Polygonum persicaria. Kind of experiment: Greenhouse postemergence herbicidal activity on POLPE, 20 DAT. The settings on record: Persicaria maculosa, post-emergence, 480 h, read-out: % activity, solo metsulfuron. As for the experimental part: as §1, §2, §3, §4, §5, §6, §7
For another experiment, the system named is Sorghum bicolor. Kind of experiment: Greenhouse postemergence herbicidal activity on SORVU, 20 DAT. To be noted: Sorghum bicolor, post-emergence, 480 h, read-out: % activity, solo metsulfuron. As for the experimental part:
as §1, §2, §3, §4, §5, §6, §7

Where [1] appears, read: 480 h, read-out: % activity, solo metsulfuron.

Experimental findings from patent US20180343865A1, “HERBICIDAL COMPOSITIONS COMPRISING ISOXAZOLO[5,4-B]PYRIDINES” (BASF SE, priority 2015, published 2018) are described below.

As for `Cc1ccc(NC(=O)N(C)C)cc1Cl` [dicuran, Chlorotoluron], the inhibition at 62.5 g/ha with Abutilon theoprasti was 50%; in the experiment on Setaria viridis, 0%; with Polygonum convolvulus (POLCO, 62.5 gai/ha, postemergence, read-out: % activity, solo application dicuran), 80%; with Amaranthus retroflexus (AMARE, 62.5 gai/ha, postemergence, read-out: % activity, solo application dicuran) it was 60%; with Chenopodium album it was 90%; in the experiment on Conyza canadiensis (ERICA, 62.5 gai/ha, postemergence, read-out: % activity, solo application dicuran) it was 75%. In addition, the inhibition at 62.5 g/ha in the experiment with Ipomoea hederacea is 85%; in the experiment with Matricaria chamomilla, 85%; in the experiment with Stellaria media (STEME, 62.5 gai/ha, postemergence, read-out: % activity, solo application dicuran), 85%; in the experiment with Galium aparine, 35%; in the experiment with ALOMY, 0%; in the experiment on APESV, 0%. Moreover, the inhibition at 62.5 g/ha with AVEFA, with BROST, with CONAR and with DIGSA was 0% throughout.
Regarding `COc1nc(C)nc(=NC(=O)NS(=O)(=O)c2ccccc2C(=O)O)[nH]1` [metsulfuron, Metsulfuron], the results for the inhibition at 0.25 g/ha in the experiment on Ambrosia elatior and in the experiment on Stellaria media (setting [1]) were 0% and 98%, respectively. The inhibition at 0.5 g/ha with Ambrosia elatior is 5%; with Polygonum convolvulus (setting [1]), 70%; in the experiment with Conyza canadiensis (setting [1]), 90%; with Polygonum persicaria, 95%; in the experiment on Sorghum bicolor it was 20%. Further, the inhibition at 1 g/ha in the experiment with Ambrosia elatior was determined as 98%; in the experiment with Polygonum convolvulus (setting [1]), 95%; in the experiment on Amaranthus retroflexus (setting [1]), 95%; in the experiment with Polygonum persicaria, 95%; in the experiment with Sorghum bicolor, 35%.
